Reference: patent publication US20050058614A1, “Methods for the treatment of gray hair using cyclopentane(ene) heptan(en)oic acid amides” (Allergan, Inc., priority 2003, published 2005)

What was measured:
gray hair = experiment: conversion of gray hair to original pigment on oral bimatoprost in human subjects; assay type: in vivo
Excerpt: A patient began taking bimatoprost as a tablet. […] A healthy person with normal blood pressure volunteers to take the medicine for the same observation as in Example 2 at the dose described above. Their hair condition is normal with no baldness. During the six month testing period, they collect in intervals the hair samples from regular daily combing. Before the testing and during the first month of testing, the hair samples collected have two types, namely completely dark brown or completely gray. At around 50 days into the testing period, a new type of hair, partly dark brown and partly gray, begins to appear in the hair samples; they represent about 3% of the gray hairs. In this subject, the gray hairs represent about 25% of their total hairs in the samples collected. It is noted that the dark brown part of the new type of hair is always associated with the lower part of the hair shaft. This is easily identifiable because the hair follicles are distinguishable at one end of hair shafts. The quality and thickness of the new type of hair is very similar to the other types of hairs of this subject. The ratio of length of the dark brown part to that of the gray part of the new type of hair varies from 1:5 to 4:1 in the samples collected during the five-month period. This varying ratio may reflect the stages of the growth cycle of each hair follicle examined. The observation was discontinued at the end of five months.

[1] = tested on: hair in the frontoparietal area of the head; experiment: observation on hair growth promoting activity on oral bimatoprost; assay type: in vivo, human; conditions: healthy person
Excerpt: (§1) A healthy subject with normal blood pressure volunteers to take the medicine for observation on hair growth promoting activity at the same dose reported in Example 1. Before taking the medicine they have few hairs left in the frontoparietal area of the head. Three months after taking the medicine, they begin to note an increase of hair density in the affected area. […] The response to the medicine is more sensitive in areas with most recent hair loss. […] The observation is terminated at the end of six months.

[2] = untoward effects during the observation period; assay type: in vivo, human; conditions: healthy person, oral, same dose as Example 1
Excerpt: as §1
A healthy person with normal blood pressure volunteers to take the medicine for the same observation as in Example 2 at the dose described above. Their hair condition is normal with no baldness. During the six month testing period, they collect in intervals the hair samples from regular daily combing. Before the testing and during the first month of testing, the hair samples collected have two types, namely completely dark brown or completely gray. At around 50 days into the testing period, a new type of hair, partly dark brown and partly gray, begins to appear in the hair samples; they represent about 3% of the gray hairs. In this subject, the gray hairs represent about 25% of their total hairs in the samples collected. It is noted that the dark brown part of the new type of hair is always associated with the lower part of the hair shaft. […]

eyelashes = conditions: Lumigan ophthalmic solution applied in the FDA approved manner; cited from earlier work

CCNC(=O)CCC/C=C\C[C@@H]1[C@@H](/C=C/[C@@H](O)CCc2ccccc2)[C@H](O)C[C@@H]1O [bimatoprost, cyclopentane N-ethyl heptanamide-5-cis-2-(3α-hydroxy-5-phenyl-1-trans-pentenyl)-3,5-dihydroxy, [1α,2β,3α,5α]]
time until new type of hair, partly dark brown and partly gray, appears in hair samples (gray hair; healthy person, no baldness, oral, same dose as Example 1, hair samples from daily combing): around 50 days | new type of hair (partly dark brown, partly gray) as share of the gray hairs (gray hair; healthy person, oral, same dose as Example 1, gray hairs about 25% of total hairs): about 3% | gray hairs turned into the original pigment (gray hair; patient, oral tablet 2 x 100 mg per dose, 3 doses per day, four months): a significant portion of their gray hairs had gradually turned into the original pigment or dark brown color | time until increase of hair density in the affected area is noted ([1]; few hairs in frontoparietal area, same dose as Example 1): Three | colour of the newly grown hairs in the affected area ([1]; same dose as Example 1): mostly dark brown | overall increase of the hair density in the affected area ([1]; same dose as Example 1, six months): very significant | hair cut frequency ([1]; same dose as Example 1, three to six months of the testing period): increase the hair cut frequency to once a month from once every two months | untoward effects ([2]; observation discontinued at five months): No untoward effects were reported | untoward effects ([2]; six months observation): does not experience any untoward effects | growth of eyelashes (eyelashes): effective to increase the growth of eyelashes
